Data reported in PubChem BioAssay AID1963874 (Molecular Pharmacology Branch, DTP, NCI, 2024).

System: 253994-281-T-J1-PDC KRAS-mutant spheroids with HUVEC/MSC, viability
Assay: Anticancer human tumor 253994-281-T-J1-PDC patient-derived colorectal carcinoma cell line growth inhibition [KRAS2]
Conditions: for IC50: curve of first compound; for viability, T/C: stronger effect = lower value; active = viability on the fitted dose curve at most 10% of control; inactive = the rest
Procedure, shortened: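 KRAS-mutant tumor cells were grown as spheroids with HUVEC endothelial cells and human MSCs as stroma. Targeted agents were tested alone and with KRAS pathway inhibitors. Doses started at or near clinical Cmax, or 10 microM, descending half-log.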

[1] = second compound 0.1 µM, first compound 0.0316 µM
[2] = second compound 0.1 µM, first compound 0.1 µM
[3] = second compound 0.316 µM, first compound 0.0316 µM
[4] = second compound 0.316 µM, first compound 0.1 µM
[5] = second compound 1 µM, first compound 0.0316 µM
[6] = second compound 1 µM, first compound 0.1 µM
[7] = second compound 3.16 µM, first compound 0.0316 µM
[8] = second compound 3.16 µM, first compound 0.1 µM
[9] = second compound 10 µM, first compound 0.0316 µM
[10] = second compound 10 µM, first compound 0.1 µM
[11] = second compound 0.1 µM, first compound 0.316 µM
[12] = second compound 0.1 µM, first compound 1 µM
[13] = second compound 0.1 µM, first compound 3.16 µM
[14] = second compound 0.1 µM, first compound 10 µM
[15] = second compound 0.316 µM, first compound 0.316 µM
[16] = second compound 0.316 µM, first compound 1 µM
[17] = second compound 0.316 µM, first compound 3.16 µM
[18] = second compound 0.316 µM, first compound 10 µM
[19] = second compound 1 µM, first compound 0.316 µM
[20] = second compound 1 µM, first compound 1 µM
[21] = second compound 1 µM, first compound 3.16 µM
[22] = second compound 1 µM, first compound 10 µM
[23] = second compound 3.16 µM, first compound 0.316 µM
[24] = second compound 3.16 µM, first compound 1 µM
[25] = second compound 3.16 µM, first compound 3.16 µM
[26] = second compound 3.16 µM, first compound 10 µM
[27] = second compound 10 µM, first compound 0.316 µM
[28] = second compound 10 µM, first compound 1 µM
[29] = second compound 10 µM, first compound 3.16 µM
[30] = second compound 10 µM, first compound 10 µM
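Note: spheroids exposed to agents for seven days before readout.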
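Throughout, for viability, T/C: percent of DMSO vehicle control viability.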

CC(C)n1nc(-c2ccc3oc(N)nc3c2)c2c(N)ncnc21 + COc1cc2nc(C)nc(NC(C)c3cc(N)cc(C(F)(F)F)c3)c2cc1OC1CCOC1
inactive: viability, T/C (second compound 0.1 µM, first compound 0.000316 µM) 82.7% | viability, T/C (second compound 0.1 µM, first compound 0.001 µM) 102% | viability, T/C (second compound 0.1 µM, first compound 0.00316 µM) 74.1% | viability, T/C (second compound 0.1 µM, first compound 0.01 µM) 87% | viability, T/C [1] 82.7% | viability, T/C [2] 56.8% | viability, T/C (second compound 0.316 µM, first compound 0.000316 µM) 86.4% | viability, T/C (second compound 0.316 µM, first compound 0.001 µM) 83.6% | viability, T/C (second compound 0.316 µM, first compound 0.00316 µM) 88% | viability, T/C (second compound 0.316 µM, first compound 0.01 µM) 79.3% | viability, T/C [3] 74.4% | viability, T/C [4] 56.2% | viability, T/C (second compound 1 µM, first compound 0.000316 µM) 90% | viability, T/C (second compound 1 µM, first compound 0.001 µM) 97.6% | viability, T/C (second compound 1 µM, first compound 0.00316 µM) 82% | viability, T/C (second compound 1 µM, first compound 0.01 µM) 82.7% | viability, T/C [5] 76.5% | viability, T/C [6] 51% | viability, T/C (second compound 3.16 µM, first compound 0.000316 µM) 81.9% | viability, T/C (second compound 3.16 µM, first compound 0.001 µM) 94.5% | viability, T/C (second compound 3.16 µM, first compound 0.00316 µM) 85.5% | viability, T/C (second compound 3.16 µM, first compound 0.01 µM) 82% | viability, T/C [7] 72.8% | viability, T/C [8] 57.2% | viability, T/C (second compound 10 µM, first compound 0.000316 µM) 78.5% | viability, T/C (second compound 10 µM, first compound 0.001 µM) 79.5% | viability, T/C (second compound 10 µM, first compound 0.00316 µM) 77.2% | viability, T/C (second compound 10 µM, first compound 0.01 µM) 79.5% | viability, T/C [9] 64.1% | viability, T/C [10] 47.6%
> 0.1 µM: IC50 (second compound 0.1 µM) | IC50 (second compound 0.316 µM) | IC50 (second compound 1 µM) | IC50 (second compound 3.16 µM)
0.0849 µM: IC50 (second compound 10 µM)

CC1(C)CCC(CN2CCN(c3ccc(C(=O)NS(=O)(=O)c4ccc(NCC5CCOCC5)c([N+](=O)[O-])c4)c(Oc4cnc5[nH]ccc5c4)c3)CC2)=C(c2ccc(Cl)cc2)C1 + COc1cc2nc(C)nc(NC(C)c3cc(N)cc(C(F)(F)F)c3)c2cc1OC1CCOC1
5.51 µM: IC50 (second compound 3.16 µM)
8.29 µM: IC50 (second compound 1 µM)
inactive: viability, T/C [1] 89% | viability, T/C [2] 85.8% | viability, T/C [11] 85.6% | viability, T/C [12] 89.1% | viability, T/C [13] 67.2% | viability, T/C [14] 64.1% | viability, T/C [3] 84.1% | viability, T/C [4] 80% | viability, T/C [15] 79.8% | viability, T/C [16] 83.5% | viability, T/C [17] 75.2% | viability, T/C [18] 53.3% | viability, T/C [5] 76.8% | viability, T/C [6] 85.9% | viability, T/C [19] 82.5% | viability, T/C [20] 78% | viability, T/C [21] 64.7% | viability, T/C [22] 47.1% | viability, T/C [7] 91.6% | viability, T/C [8] 85.2% | viability, T/C [23] 81.7% | viability, T/C [24] 82.2% | viability, T/C [25] 55.2% | viability, T/C [26] 44.3% | viability, T/C [9] 71.1% | viability, T/C [10] 72% | viability, T/C [27] 74.4% | viability, T/C [28] 61.6% | viability, T/C [29] 47.8% | viability, T/C [30] 24.4%
> 10 µM: IC50 (second compound 0.1 µM) | IC50 (second compound 0.316 µM)
2.59 µM: IC50 (second compound 10 µM)

COc1cc(Nc2ncc3c(n2)-c2ccc(Cl)cc2C(c2c(F)cccc2OC)=NC3)ccc1C(=O)O + COc1cc2nc(C)nc(NC(C)c3cc(N)cc(C(F)(F)F)c3)c2cc1OC1CCOC1
inactive: viability, T/C [1] 63.4% | viability, T/C [2] 29.7% | viability, T/C [11] 26.6% | viability, T/C [12] 35.2% | viability, T/C [13] 39.9% | viability, T/C [14] 38.6% | viability, T/C [3] 51.4% | viability, T/C [4] 26.8% | viability, T/C [15] 26.5% | viability, T/C [16] 33.1% | viability, T/C [17] 35.2% | viability, T/C [18] 33.6% | viability, T/C [5] 49% | viability, T/C [6] 34.3% | viability, T/C [19] 22.4% | viability, T/C [20] 27.5% | viability, T/C [21] 31% | viability, T/C [22] 34.5% | viability, T/C [7] 50.1% | viability, T/C [8] 30% | viability, T/C [23] 26% | viability, T/C [24] 29% | viability, T/C [25] 41.7% | viability, T/C [26] 45.1% | viability, T/C [9] 38.3% | viability, T/C [10] 31.4% | viability, T/C [27] 25.7% | viability, T/C [28] 31.6% | viability, T/C [29] 35.7% | viability, T/C [30] 29.1%
< 0.0316 µM: IC50 (second compound 0.1 µM) | IC50 (second compound 0.316 µM) | IC50 (second compound 1 µM) | IC50 (second compound 3.16 µM) | IC50 (second compound 10 µM)

COc1cc2nccc(Oc3ccc(NC(=O)C4(C(=O)Nc5ccc(F)cc5)CC4)cc3)c2cc1OC + COc1cc2nc(C)nc(NC(C)c3cc(N)cc(C(F)(F)F)c3)c2cc1OC1CCOC1
5.93 µM: IC50 (second compound 1 µM)
> 10 µM: IC50 (second compound 0.1 µM) | IC50 (second compound 0.316 µM)
5.18 µM: IC50 (second compound 10 µM)
inactive: viability, T/C [1] 99.1% | viability, T/C [2] 101% | viability, T/C [11] 118% | viability, T/C [12] 89.4% | viability, T/C [13] 87.6% | viability, T/C [14] 52.2% | viability, T/C [3] 106% | viability, T/C [4] 110% | viability, T/C [15] 113% | viability, T/C [16] 109% | viability, T/C [17] 92.2% | viability, T/C [18] 59.3% | viability, T/C [5] 101% | viability, T/C [6] 106% | viability, T/C [19] 101% | viability, T/C [20] 92.5% | viability, T/C [21] 76.4% | viability, T/C [22] 28.3% | viability, T/C [7] 99.6% | viability, T/C [8] 97.3% | viability, T/C [23] 109% | viability, T/C [24] 104% | viability, T/C [25] 70.2% | viability, T/C [26] 17.7% | viability, T/C [9] 93.8% | viability, T/C [10] 89.1% | viability, T/C [27] 86.5% | viability, T/C [28] 82.3% | viability, T/C [29] 81.7%
active: viability, T/C [30] 7.51%
4.91 µM: IC50 (second compound 3.16 µM)
